Measured values reported in patent publication US5045566A, “Novel imidate insecticides” (ICI Americas Inc., priority 1989, dated 1991).

Assays:
Type in all cases: in vivo
[1] = tested on: Tobacco Budworm [Heliothis virescens (Fabricius)] larvae; assay: Tobacco budworm larvae, contact (TBW-C), 5 days; settings: percent in solution, second-instar larvae
How it was run: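 Cotton cotyledons dipped 2–3 s in compound in 50-50 acetone-water, dried, then infested with 5 second-instar larvae and held 5 days at high humidity. Mortality scored; LC50 from dosage-mortality curves, expressed as percent compound in solution, concentrations from 0.1% downward.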

[2] = tested on: Rice water weevil [Lissorhoptrus oryzophilus (Kuschel)]; assay: Rice water weevil topical (RWW), 48 hours; settings: μg of test compound per weevil, female adults
Protocol: The compounds in Tables 1 and 2 above were tested for insecticidal activity using the following testing procedures. LC50 values, based on the results of these tests and calculated according to dosage-mortality curves, are expressed in Table 3.
Rice water weevil [Lissorhoptrus oryzophilus (Kuschel)]:
Test compounds were diluted in acetone. Droplets (1 ul) of test solutions were applied to the ventral abdomens of ten female adult weevils. The treated weevils were placed in containers with wet cotton balls and rice foliage. The containers were covered and kept at a temperature of about 25° C. Mortality was recorded after 48 hours. Test concentrations ranged from […] down to that at which 50% mortality occurred. The LC50 values are expressed below in Table 3 under the heading "RWW" in terms of μg of test compound per weevil.

[3] = tested on: Beet Armyworm (Spodoptera exigua); assay: Beet armyworm leaf dip (BAW), 5 days; settings: percent in solution; second-instar larvae; five days
How it was run: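 Five second-instar larvae per dish fed on dried sugar beet leaves previously dipped 2–3 s in acetone-water (1:1) test solutions up to 0.1%. Kept at high humidity, with deaths counted after five days; LC50 as % in solution via dosage-mortality curves.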

[4] = tested on: Black Bean Aphid [Aphis fabae (Scop.)]; assay: Black bean aphid spray test on nasturtium (BBA), 48 hours; settings: percent of test compound in sprayed solution
How it was run: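 LC50, given as percent test compound in the sprayed liquid, was calculated from dosage-mortality curves using concentrations from 0.05% downward. Sprays in 50:50 acetone-water went to runoff on ~5 cm nasturtiums carrying 25-50 aphids of mixed ages, one day after infestation. Deaths were counted 48 h later under greenhouse conditions.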

[5] = tested on: Cabbage Looper [Trichoplusia ni (Hubner)]; assay: Cabbage looper leaf dip (CL), 3-5 days; settings: percent in solution, second-instar larvae
How it was run: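 Steps: dilute compound in 50-50 acetone-water from 0.1% downward; immerse cotyledon pieces 2-3 s and dry; place in humid petri dishes with five second-instar larvae; record mortality at 3-5 days. Dosage-mortality curves yield LC50 as percent in solution.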

[6] = tested on: Tobacco Budworm [Heliothis virescens (Fabricius)] eggs; assay: Tobacco budworm eggs (TBW-E); settings: percent in solution; 2-day old eggs
How it was run: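 Mortality of dipped eggs served as read-out, recorded after untreated controls hatched and began feeding. Treatments used acetone solutions from 0.1% downward, with eggs incubated at 78° F; LC50 is expressed as percent of compound in the solution.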

[7] = tested on: Housefly [Musca domestica]; assay: Housefly contact mortality in dishes (HF), 48 hours; settings: μg of test compound per 25 female flies
How it was run: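 LC50 (μg compound per 25 female flies) derives from dosage-mortality curves of 48 h kill. Flies, females 1-2 days old, were held 25 per cage over a dish coated with dried acetone deposit, starting at 100 μg per cage and descending.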

[8] = tested on: Aster Leafhopper [Macrosteles fascifrens (Stal)]; assay: Aster leafhopper on dipped oat seedlings (LH), 48 hours; settings: percent in solution, adults/nymphs
How it was run: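 LC50 values, given as percent of test compound in the dip solution, were derived from dosage-mortality curves over concentrations from 0.05% downward. Mortality was counted 48 hours after ten leafhopper adults/nymphs were enclosed on treated seedlings. The seedlings were oats, about 10 cm tall, briefly dipped in 50-50 acetone-water.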

[9] = tested on: Maize weevil [Sitophilus zeamais (Motschulsky)]; assay: Maize weevil on dipped corn seeds (MW), 48 hours; settings: percent in solution, adult weevils
How it was run: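 LC50, given as percent of compound in dipping solution, comes from dosage-mortality curves over concentrations descending from 0.01%. Four corn seeds soaked 2-3 s in 50:50 acetone:water solution were dried and held with 10 adult weevils, about 25° C, mortality read after 48 h.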

Row | Structure (SMILES) | LC50 TBW C (contact) [1] [%] | LC50 RWW [2] [µg] | LC50 BAW [3] [%] | LC50 BBA [4] [%] | LC50 CL [5] [%] | LC50 TBW E (eggs) [6] [%] | LC50 HF [7] [µg] | LC50 LH [8] [%] | LC50 MW [9] [%]
1 | CC(C)C(=Nc1cc(F)cc(F)c1)OCc1cccc(Oc2ccccc2)c1 [Compound 55] | 0.004 | > 2.5 | 0.006 | 0.003 | 0.0017 | 0.06 | > 100 | 0.0005 | –
2 | FC(F)(F)c1cccc(N=C(OCc2cccc(Oc3ccccc3)c2)C(Cl)Cl)c1 [Compound 66, N-(3-Trifluoromethylphenyl)-O-(3-phenoxybenzyl)dichloroacetimidate] | – | > 2.5 | 0.0065 | 0.0003 | < 0.0025 | 0.06 | 9.7 | 0.001 | –
3 | CC(C)C(=Nc1ccc(F)c(Cl)c1)OCc1cccc(Oc2ccccc2)c1 [Compound 81, N-(3-Chloro-4-fluorophenyl)-O-(3-phenoxybenzyl)isobutyrylimidate] | 0.0009 | > 0.5 | 0.003 | 0.001 | 0.0006 | 0.007 | 4 | 0.0003 | 0.005
4 | CC(C)C(=Nc1ccc(F)c(Cl)c1)OCc1ccc(F)c(Oc2ccccc2)c1 [Compound 82] | 0.0008 | 0.086 | 0.0025 | 0.00021 | 0.00018 | 0.006 | 2.5 | 0.0001 | –
5 | CC(C)C(=Nc1ccc(F)c(Cl)c1)OCc1cccc(Oc2ccc(F)cc2)c1 [Compound 89] | 0.0005 | > 2.5 | 0.009 | 0.003 | 0.00003 | 0.04 | 5 | 0.001 | 0.005
6 | CC(C)C(=Nc1ccc2c(c1)OCO2)OCc1cccc(Oc2ccccc2)c1 [Compound 180] | 0.003 | > 2.5 | 0.005 | 0.0003 | 0.0004 | 0.03 | 2 | 0.0015 | 0.008
7 | CC(C)C(=Nc1ccc2c(c1)OCO2)OCc1ccc(F)c(Oc2ccccc2)c1 [Compound 181] | 0.001 | > 2.5 | 0.001 | – | 0.0005 | 0.01 | 25 | – | 0.005
8 | CC(C)C(=Nc1ccc(F)c(Cl)c1)OCc1ccc(F)c(Oc2ccc(F)cc2)c1 [Compound 216] | 0.00018 | 0.067 | 0.0007 | 0.00025 | 0.000007 | 0.005 | 2 | 0.00025 | 0.0017
9 | CC(C)C(=Nc1ccc(F)c(Cl)c1)OCc1cccc(Oc2ccc(Cl)cc2)c1 [Compound 239] | 0.0005 | > 2.5 | 0.005 | 0.001 | 0.00015 | 0.025 | 14 | 0.002 | 0.006
10 | CC(C)C(=Nc1ccc2c(c1)OC(F)(F)O2)OCc1cccc(Oc2ccc(F)cc2)c1 [Compound 244] | 0.00025 | 0.09 | 0.002 | 0.0006 | 0.00004 | > 0.1 | 14 | – | 0.0025
11 | CC(C)C(=Nc1ccc2c(c1)OC(F)(F)O2)OCc1cccc(Oc2ccccc2)c1 [Compound 245] | 0.0015 | > 2.5 | 0.001 | 0.0003 | 0.0035 | 0.016 | 20 | – | 0.006
12 | CC(C)C(=Nc1ccc(F)c(I)c1)OCc1ccc(F)c(Oc2ccc(F)cc2)c1 [Compound 281] | 0.00025 | > 2.5 | 0.0027 | 0.0003 | 0.00002 | 0.006 | 5 | – | 0.005
13 | CC(C)C(=Nc1ccc2c(c1)OC(F)(F)O2)OCc1ccc(F)c(Oc2ccccc2)c1 [Compound 285] | 0.00017 | 0.13 | 0.0006 | – | 0.000075 | 0.005 | 36 | – | 0.005
14 | CC(C)C(=Nc1ccc(C(F)(F)F)cc1)OCc1ccc(F)c(Oc2ccc(Cl)cc2)c1 [Compound 324] | 0.0004 | 0.06 | 0.0024 | 0.0003 | 0.00014 | 0.025 | > 100 | – | –
15 | CC(C)C(=Nc1ccc(F)cc1)OCc1ccc(F)c(Oc2ccc(Cl)cc2)c1 [Compound 325] | 0.0006 | > 2.5 | 0.0025 | 0.0001 | 0.00012 | 0.037 | 5 | – | –
16 | CC(C)C(=Nc1ccc(F)c(Cl)c1F)OCc1cccc(Oc2ccc(Cl)cc2)c1 [Compound 331] | 0.0004 | > 2.5 | 0.002 | > 0.05 | 0.0002 | 0.04 | 20 | – | –
17 | CC(C)C(=Nc1ccc(F)c(F)c1)OCc1ccc(F)c(Oc2ccccc2)c1 [Compound 336] | 0.0005 | > 2.5 | 0.001 | 0.0003 | 0.00017 | 0.02 | 3.6 | – | 0.0091
18 | CC(C)C(=Nc1ccc(C(F)(F)F)cc1)OCc1ccc(F)c(Oc2ccccc2)c1 [Compound 337] | 0.0005 | 0.067 | 0.0005 | 0.0003 | 0.0007 | 0.008 | 21 | – | 0.0053
19 | CC(C)C(=Nc1ccc(F)c(F)c1F)OCc1ccc(F)c(Oc2ccc(F)cc2)c1 [Compound 349] | 0.0004 | > 2.5 | > 0.1 | > 0.05 | 0.00007 | > 0.1 | 4.9 | – | > 0.01
20 | CC(C)C(=Nc1ccc(F)c(Cl)c1)OCc1cccc(Oc2ccc(F)cc2)n1 [Compound 461] | – | > 2.5 | 0.0035 | 0.001 | 0.00008 | 0.01 | 6 | – | 0.0075
